Assays:
IL-2 = experiment: Cytokine suppression in splenocytes: IL-2; assay type: cell-based, Balb/C mice; conditions: 48 hrs
Description: (§1) Naïve Balb/C mice were randomized in two groups. Mice from groups 1 and 2 were sacrificed and spleens were isolated. The Splenocytes were isolated and cultured in RPMI […] 1640 media with 10% FBS and 1% antibiotics in microtitre plate. Group 1 was incubated with PBS while group 2 was incubated with 10̂8 Mw cells. After 48 hrs the cell supernatant was separated and the levels of cytokines were checked using commercial kit from R & D systems (Cat # M2000, Cat # M4000B, Cat # M1240).
(§2) Naïve Balb/C mice were sacrificed and spleens were isolated for all five groups. The splenocytes were isolated from each group and cultured in RPMI 1640 media with […] in microtitre plate. The cells were plated in micro titer plate. The wells were divided into five sets. Set one was the control, set two was stimulated with Mw, set three with 10 mM of Dexamethasone set four with 10 mcM (micro mole) of Dexamethasone and set five with 1 mcM of dexammethasone. After 48 hrs of culture the cells were harvested and the cytokine assays were performed using commercial kits from R&D systems. (Cat #M5000, Cat #M4000B, Cat #M2000, Cat #M1240)

IL-5 = experiment: Cytokine suppression in splenocytes: IL-5; assay type: cell-based, Balb/C mice; conditions: 48 hrs
Description: as §1, §2

IL-12p40 = experiment: Cytokine suppression in splenocytes: IL-12p40; assay type: cell-based, Balb/C mice; conditions: 48 hrs
Description: as §1, §2

IL-4 = experiment: Cytokine suppression in splenocytes: IL-4; assay type: cell-based, Balb/C mice; conditions: 48 hrs
Description: as §1, §2

[1] = after administration of 200 mg of Dexamethasone intravenously; cited from earlier work

C[C@@H]1C[C@H]2[C@@H]3CCC4=CC(=O)C=C[C@]4(C)[C@@]3(F)[C@@H](O)C[C@]2(C)[C@@]1(O)C(=O)CO [Dexamethasone]
In vitro % inhibition of IL-2 (IL-2; Dexamethasone 1 mcM): 25.6% | In vitro % inhibition of IL-2 (IL-2; Dexamethasone 10 mcM): 33.7% | inhibition at 10000 µM (IL-2; Mus musculus, Splenocyte, Dexamethasone 10 mM, read-out: In vitro % inhibition of IL-2): 70.6% | In vitro % inhibition of IL-5 (IL-5; Dexamethasone 1 mcM): 43.9% | In vitro % inhibition of IL-5 (IL-5; Dexamethasone 10 mcM): 70.3% | inhibition at 10000 µM (IL-5; Mus musculus, Splenocyte, Dexamethasone 10 mM, read-out: In vitro % inhibition of IL-5): 85.8% | In vitro % inhibition of IL-12p40 (IL-12p40; Dexamethasone 1 mcM): 33.7% | In vitro % inhibition of IL-12p40 (IL-12p40; Dexamethasone 10 mcM): 47.1% | inhibition at 10000 µM (IL-12p40; Mus musculus, Splenocyte, Dexamethasone 10 mM, read-out: In vitro % inhibition of IL-12p40): 57.7% | In vitro % inhibition of IL-4 (IL-4; Dexamethasone 1 mcM): 61.9% | In vitro % inhibition of IL-4 (IL-4; Dexamethasone 10 mcM): 84.5% | inhibition at 10000 µM (IL-4; Mus musculus, Splenocyte, Dexamethasone 10 mM, read-out: In vitro % inhibition of IL-4): 93.7% | Cmax [1]: 10000 µM

Source: patent US20100104536A1, “P38 INHIBITORS” (priority 2007, published 2010)
